This is an account of results in patent EP4467141A1, “PYRAZOLO-QUINOLINES AS SELECTIVE INHIBITORS OF GENOTOXIC STRESS-INDUCED IKK/NF- KB PATHWAYS FOR CANCER THERAPY” (Max-Delbrück-Centrum für Molekulare Medizin in der …, priority 2023, dated 2024).

Common to all, as to assay: Kinase panel study
What all share (assay type): biochemical
What all share (details): read-out: Percentage of inhibition; for inhibition at 1 µM: 1000nM; for inhibition at 10 µM: 10000nM

The target in one experiment is T1, PRKCE (PKC epsilon) (Homo sapiens, UniProt Q02156).
T1 construct: purchased Thermo Fisher Scientific
T1 sequence (Q02156 1-737): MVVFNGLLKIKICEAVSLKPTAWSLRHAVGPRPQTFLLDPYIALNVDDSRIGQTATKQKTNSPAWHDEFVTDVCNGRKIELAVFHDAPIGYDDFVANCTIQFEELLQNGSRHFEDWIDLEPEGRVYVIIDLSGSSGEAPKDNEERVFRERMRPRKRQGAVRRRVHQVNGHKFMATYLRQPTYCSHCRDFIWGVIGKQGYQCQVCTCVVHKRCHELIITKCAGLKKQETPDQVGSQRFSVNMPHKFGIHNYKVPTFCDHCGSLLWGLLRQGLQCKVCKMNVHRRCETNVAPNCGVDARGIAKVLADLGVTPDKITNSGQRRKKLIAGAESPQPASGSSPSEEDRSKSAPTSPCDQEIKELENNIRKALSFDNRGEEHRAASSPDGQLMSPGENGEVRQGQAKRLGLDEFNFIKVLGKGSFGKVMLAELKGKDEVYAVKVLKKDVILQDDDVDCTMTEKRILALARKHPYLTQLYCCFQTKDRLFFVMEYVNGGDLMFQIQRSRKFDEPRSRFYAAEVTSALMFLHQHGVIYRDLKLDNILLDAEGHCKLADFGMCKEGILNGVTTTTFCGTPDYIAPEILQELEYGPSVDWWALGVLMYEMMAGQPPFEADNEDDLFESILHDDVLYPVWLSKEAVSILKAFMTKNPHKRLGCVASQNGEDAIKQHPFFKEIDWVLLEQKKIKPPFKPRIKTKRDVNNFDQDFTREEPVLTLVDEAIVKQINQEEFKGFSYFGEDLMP
The method, boiled down: (§1)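 Percent inhibition of each kinase by the test compound, given at either 1 µM or 10 µM, came from a contracted panel run by ZLyte or Adapta protocol.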

A further experiment deals with T2, TEK (Tie2) (Homo sapiens, UniProt Q02763).
T2 construct: purchased Thermo Fisher Scientific
The method, boiled down:
as §1

The target of another experiment is T3, GRK6 (Homo sapiens, UniProt P43250).
T3 construct: purchased Thermo Fisher Scientific
Put shortly: as §1

For the next experiment, the target named is T4, CSNK1D (CK1 delta) (Homo sapiens, UniProt P48730).
T4 construct: purchased Thermo Fisher Scientific
The method, boiled down: as §1

Experiment [1] has as its target T5, CSNK1E (CK1 epsilon) R178C (Homo sapiens, UniProt P49674, R178C).
T5 construct: purchased Thermo Fisher Scientific
T5 sequence (P49674 1-416 R178C): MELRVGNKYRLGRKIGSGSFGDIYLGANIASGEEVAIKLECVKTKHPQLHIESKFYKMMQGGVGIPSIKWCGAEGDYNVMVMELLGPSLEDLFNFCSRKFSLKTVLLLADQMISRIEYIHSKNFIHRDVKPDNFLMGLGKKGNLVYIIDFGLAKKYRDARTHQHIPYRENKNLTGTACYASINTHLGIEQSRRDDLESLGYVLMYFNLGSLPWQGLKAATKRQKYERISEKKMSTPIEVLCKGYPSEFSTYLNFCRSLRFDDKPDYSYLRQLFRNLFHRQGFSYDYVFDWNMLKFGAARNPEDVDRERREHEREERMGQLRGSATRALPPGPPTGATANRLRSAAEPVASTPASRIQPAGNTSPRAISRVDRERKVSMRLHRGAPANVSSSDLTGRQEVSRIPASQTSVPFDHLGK
Put shortly:
as §1

For a further experiment, the target named is T6, EPHA2 (Homo sapiens, UniProt P29317).
T6 construct: purchased Thermo Fisher Scientific
Put shortly:
as §1

A further experiment has as its target T7, PRKCD (PKC delta) (Homo sapiens, UniProt Q05655).
T7 construct: purchased Thermo Fisher Scientific
The method, boiled down:
as §1

Another experiment addresses T8, PRKX (Homo sapiens, UniProt P51817).
T8 construct: purchased Thermo Fisher Scientific
T8 sequence (P51817 1-358): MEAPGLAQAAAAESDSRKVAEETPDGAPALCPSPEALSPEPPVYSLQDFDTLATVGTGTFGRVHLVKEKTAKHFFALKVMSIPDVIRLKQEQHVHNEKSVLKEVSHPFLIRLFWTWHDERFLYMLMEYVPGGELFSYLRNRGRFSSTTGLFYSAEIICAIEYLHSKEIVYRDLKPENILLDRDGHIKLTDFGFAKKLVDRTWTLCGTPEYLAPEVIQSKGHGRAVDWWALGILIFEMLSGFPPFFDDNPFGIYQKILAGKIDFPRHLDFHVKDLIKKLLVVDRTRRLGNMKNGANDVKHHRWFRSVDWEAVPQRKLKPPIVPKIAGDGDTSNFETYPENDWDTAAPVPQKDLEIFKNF
The method, boiled down: as §1

The target in a further experiment is T9, CDC42 BPA (MRCKA) (Homo sapiens, UniProt Q5VT25).
T9 construct: purchased Thermo Fisher Scientific
Put shortly: as §1

A further experiment concerns the target T10, AMPK (A2/B1/G2) (Homo sapiens, UniProt P54646).
T10 construct: purchased Thermo Fisher Scientific
The method, boiled down:
as §1

T4 sequence (P48730 whole entry): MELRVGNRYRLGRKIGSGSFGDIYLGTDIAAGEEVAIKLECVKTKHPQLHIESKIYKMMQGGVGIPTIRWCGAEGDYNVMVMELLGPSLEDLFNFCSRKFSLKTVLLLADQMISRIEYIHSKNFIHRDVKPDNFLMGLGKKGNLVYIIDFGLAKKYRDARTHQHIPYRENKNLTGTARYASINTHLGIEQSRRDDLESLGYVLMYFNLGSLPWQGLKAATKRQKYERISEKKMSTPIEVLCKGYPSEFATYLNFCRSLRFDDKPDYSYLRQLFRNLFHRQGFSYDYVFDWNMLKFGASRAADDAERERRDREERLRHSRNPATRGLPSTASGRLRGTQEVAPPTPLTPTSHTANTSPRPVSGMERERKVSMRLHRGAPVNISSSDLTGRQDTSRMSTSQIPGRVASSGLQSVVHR
T2 sequence (Q02763 23-1124): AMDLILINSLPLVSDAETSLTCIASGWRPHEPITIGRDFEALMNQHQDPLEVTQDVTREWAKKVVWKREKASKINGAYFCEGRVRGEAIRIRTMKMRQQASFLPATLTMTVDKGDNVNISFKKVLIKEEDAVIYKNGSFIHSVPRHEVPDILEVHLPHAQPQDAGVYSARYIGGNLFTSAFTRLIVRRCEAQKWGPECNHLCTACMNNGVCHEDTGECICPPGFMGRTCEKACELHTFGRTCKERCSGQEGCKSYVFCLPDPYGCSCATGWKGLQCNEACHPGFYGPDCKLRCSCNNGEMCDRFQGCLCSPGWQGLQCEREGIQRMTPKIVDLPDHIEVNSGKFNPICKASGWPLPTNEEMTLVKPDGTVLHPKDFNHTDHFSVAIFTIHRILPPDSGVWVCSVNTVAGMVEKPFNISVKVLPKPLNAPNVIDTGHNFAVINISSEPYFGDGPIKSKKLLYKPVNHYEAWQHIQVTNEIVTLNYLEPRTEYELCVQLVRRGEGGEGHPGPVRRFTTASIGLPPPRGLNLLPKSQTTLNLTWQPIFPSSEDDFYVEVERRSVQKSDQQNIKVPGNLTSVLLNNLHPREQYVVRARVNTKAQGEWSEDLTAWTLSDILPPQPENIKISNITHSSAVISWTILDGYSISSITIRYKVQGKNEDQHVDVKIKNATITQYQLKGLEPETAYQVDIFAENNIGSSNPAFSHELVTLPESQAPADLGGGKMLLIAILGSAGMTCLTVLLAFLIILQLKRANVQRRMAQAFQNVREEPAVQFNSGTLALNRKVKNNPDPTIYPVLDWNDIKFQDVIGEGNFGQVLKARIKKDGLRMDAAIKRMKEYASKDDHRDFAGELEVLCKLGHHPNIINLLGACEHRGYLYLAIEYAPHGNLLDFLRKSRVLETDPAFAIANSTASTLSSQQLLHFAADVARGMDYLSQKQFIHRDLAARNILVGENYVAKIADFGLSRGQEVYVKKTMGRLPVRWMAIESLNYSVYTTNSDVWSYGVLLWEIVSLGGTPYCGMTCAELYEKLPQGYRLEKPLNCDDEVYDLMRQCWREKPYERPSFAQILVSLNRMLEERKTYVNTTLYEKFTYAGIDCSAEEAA
T6 sequence (P29317 24-976): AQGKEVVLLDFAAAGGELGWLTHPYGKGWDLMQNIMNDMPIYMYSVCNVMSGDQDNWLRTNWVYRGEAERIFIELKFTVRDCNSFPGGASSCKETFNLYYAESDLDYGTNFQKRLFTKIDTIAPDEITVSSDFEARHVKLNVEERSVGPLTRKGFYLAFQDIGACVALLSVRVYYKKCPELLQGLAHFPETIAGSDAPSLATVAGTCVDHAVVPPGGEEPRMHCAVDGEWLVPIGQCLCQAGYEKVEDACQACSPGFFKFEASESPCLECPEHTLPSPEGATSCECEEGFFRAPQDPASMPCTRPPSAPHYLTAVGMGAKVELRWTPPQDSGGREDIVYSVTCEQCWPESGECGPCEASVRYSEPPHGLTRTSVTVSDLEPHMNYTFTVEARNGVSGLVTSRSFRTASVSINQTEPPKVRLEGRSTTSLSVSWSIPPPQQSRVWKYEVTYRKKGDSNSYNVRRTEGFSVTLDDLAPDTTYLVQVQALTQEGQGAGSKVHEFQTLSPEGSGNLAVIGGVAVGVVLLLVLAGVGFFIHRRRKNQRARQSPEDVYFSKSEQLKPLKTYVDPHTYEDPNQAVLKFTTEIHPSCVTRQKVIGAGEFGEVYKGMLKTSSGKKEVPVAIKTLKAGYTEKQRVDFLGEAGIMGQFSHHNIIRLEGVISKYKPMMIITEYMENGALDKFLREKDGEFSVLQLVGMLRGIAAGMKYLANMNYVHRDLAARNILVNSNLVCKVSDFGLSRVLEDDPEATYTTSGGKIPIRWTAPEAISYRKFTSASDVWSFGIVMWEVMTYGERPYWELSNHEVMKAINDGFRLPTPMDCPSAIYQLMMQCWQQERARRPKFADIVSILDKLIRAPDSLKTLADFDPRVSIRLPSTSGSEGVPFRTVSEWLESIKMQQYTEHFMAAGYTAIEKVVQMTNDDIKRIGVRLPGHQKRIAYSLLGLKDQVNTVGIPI
T9 sequence (Q5VT25 whole entry): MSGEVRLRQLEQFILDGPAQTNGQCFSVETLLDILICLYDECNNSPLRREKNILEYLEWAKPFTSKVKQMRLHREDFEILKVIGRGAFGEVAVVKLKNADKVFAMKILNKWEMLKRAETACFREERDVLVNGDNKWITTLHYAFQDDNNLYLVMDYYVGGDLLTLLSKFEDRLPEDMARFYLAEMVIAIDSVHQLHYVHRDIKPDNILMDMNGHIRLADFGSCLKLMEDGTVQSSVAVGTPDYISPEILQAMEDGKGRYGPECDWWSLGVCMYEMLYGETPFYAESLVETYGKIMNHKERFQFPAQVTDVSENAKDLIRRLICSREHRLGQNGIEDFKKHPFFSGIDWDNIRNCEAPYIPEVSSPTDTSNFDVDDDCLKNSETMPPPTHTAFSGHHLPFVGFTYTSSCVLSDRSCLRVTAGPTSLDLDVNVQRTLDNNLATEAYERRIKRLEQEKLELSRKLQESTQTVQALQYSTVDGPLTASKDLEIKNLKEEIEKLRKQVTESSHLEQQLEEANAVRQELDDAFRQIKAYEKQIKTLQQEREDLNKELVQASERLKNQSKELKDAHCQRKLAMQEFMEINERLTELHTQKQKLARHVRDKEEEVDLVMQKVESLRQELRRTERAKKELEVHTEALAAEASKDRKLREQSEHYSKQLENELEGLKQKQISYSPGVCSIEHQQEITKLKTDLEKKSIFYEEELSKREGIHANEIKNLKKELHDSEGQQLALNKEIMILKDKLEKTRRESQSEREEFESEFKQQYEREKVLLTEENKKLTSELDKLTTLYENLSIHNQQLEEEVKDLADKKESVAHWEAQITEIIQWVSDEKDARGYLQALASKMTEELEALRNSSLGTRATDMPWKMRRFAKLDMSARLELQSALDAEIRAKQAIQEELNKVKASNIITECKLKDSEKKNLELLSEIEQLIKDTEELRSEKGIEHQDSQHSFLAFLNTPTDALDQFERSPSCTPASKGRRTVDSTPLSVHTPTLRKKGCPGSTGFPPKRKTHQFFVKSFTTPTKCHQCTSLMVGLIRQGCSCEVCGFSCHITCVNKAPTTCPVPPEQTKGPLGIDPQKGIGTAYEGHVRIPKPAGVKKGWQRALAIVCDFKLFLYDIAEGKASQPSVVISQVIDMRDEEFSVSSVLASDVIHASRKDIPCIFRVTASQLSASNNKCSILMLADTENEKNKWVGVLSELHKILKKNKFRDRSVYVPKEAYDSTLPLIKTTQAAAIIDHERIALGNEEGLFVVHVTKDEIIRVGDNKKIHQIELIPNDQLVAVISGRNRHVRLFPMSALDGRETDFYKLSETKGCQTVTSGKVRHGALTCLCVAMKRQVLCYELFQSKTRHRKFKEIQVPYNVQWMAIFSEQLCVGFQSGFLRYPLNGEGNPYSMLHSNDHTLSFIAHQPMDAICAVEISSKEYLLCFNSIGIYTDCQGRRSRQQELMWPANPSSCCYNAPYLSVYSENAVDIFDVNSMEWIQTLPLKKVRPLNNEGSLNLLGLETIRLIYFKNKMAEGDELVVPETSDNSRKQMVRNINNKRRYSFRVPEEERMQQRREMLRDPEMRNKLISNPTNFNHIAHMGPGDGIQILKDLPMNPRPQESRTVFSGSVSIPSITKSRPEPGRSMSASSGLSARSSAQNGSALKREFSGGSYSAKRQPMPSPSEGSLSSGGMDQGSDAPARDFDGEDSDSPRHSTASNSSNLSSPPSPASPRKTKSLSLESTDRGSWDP
T7 sequence (Q05655 whole entry): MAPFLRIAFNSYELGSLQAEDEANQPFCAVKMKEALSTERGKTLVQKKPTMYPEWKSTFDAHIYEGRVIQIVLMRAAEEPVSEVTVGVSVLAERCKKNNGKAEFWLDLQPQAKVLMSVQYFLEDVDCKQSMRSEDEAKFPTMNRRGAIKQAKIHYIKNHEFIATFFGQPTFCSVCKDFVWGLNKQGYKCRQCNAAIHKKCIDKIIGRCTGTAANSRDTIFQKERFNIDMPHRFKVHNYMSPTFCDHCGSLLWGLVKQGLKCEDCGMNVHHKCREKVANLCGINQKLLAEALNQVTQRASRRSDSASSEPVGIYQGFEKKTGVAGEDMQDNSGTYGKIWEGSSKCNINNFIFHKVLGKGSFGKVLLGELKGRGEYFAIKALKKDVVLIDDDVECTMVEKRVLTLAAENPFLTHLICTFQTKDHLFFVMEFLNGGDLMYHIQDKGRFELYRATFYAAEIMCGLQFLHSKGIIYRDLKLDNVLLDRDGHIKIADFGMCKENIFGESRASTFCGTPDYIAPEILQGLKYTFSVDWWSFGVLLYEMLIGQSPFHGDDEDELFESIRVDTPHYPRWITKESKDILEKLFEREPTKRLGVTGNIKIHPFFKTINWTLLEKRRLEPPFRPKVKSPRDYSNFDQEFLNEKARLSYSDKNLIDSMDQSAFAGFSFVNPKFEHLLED

As to `COc1ccc2c(c1OC)c(=O)n1c3ccc(O)cc3c3ccnc2c31` [MW01, 5-Hydroxy-10,11-dimethoxy-9H-benzo[c]indolo[3,2,1-ij][1,5]naphthyridin-9-one], the inhibition at 1 µM turned out to be 9% on PRKCE (PKC epsilon); 19% on TEK (Tie2); 0% on GRK6; 13% at CSNK1D (CK1 delta); 23% in experiment [1]; 6% on EPHA2. In addition, the inhibition at 1 µM at PRKCD (PKC delta) was 6%; at PRKX, 22%; on CDC42 BPA (MRCKA), 11%; on AMPK (A2/B1/G2), -12%. The inhibition at 10 µM on PRKCE (PKC epsilon) is 8%; on TEK (Tie2), 5%; at GRK6 it was 5%; at CSNK1D (CK1 delta) it was 39%; in [1], 64%; on EPHA2, 14%. The inhibition at 10 µM on PRKCD (PKC delta) was found to be 17%; on PRKX, 16%; on CDC42 BPA (MRCKA) it was 15%; at AMPK (A2/B1/G2), 10%.

For the molecule `COc1ccc2cc3c(N)nn(C(=O)c4cccc(N(C)C)c4)c3nc2c1` [MW05, (3-Amino-7-methoxypyrazolo[3,4-b]quinolin-1-yl)-[3-(dimethylamino)phenyl]methanone], the inhibition at 1 µM at PRKCE (PKC epsilon) was 6%; on TEK (Tie2) it was -2%; on GRK6, 6%; at CSNK1D (CK1 delta), -1%; in experiment [1], 0%; at EPHA2 it was 13%. The inhibition at 1 µM is 14% at PRKCD (PKC delta), 8% on PRKX, 9% on CDC42 BPA (MRCKA) and -12% on AMPK (A2/B1/G2). In addition, the inhibition at 10 µM is -12% at PRKCE (PKC epsilon); 12% on TEK (Tie2); 3% at GRK6; -1% at CSNK1D (CK1 delta); 6% in experiment [1]; -15% at EPHA2. For the same molecule, the inhibition at 10 µM on PRKCD (PKC delta) is 0%; on PRKX, -2%; on CDC42 BPA (MRCKA) it was 2%; on AMPK (A2/B1/G2), -16%.

For orientation: inhibition means the drop in the measured response relative to a control, in per cent.
